Test results as given in patent US20250228239A1, “MOLECULES HAVING PESTICIDAL UTILITY, AND INTERMEDIATES, COMPOSITIONS, AND PROCESSES, RELATED THERETO” (priority 2024, published 2025).
Like-named read-outs stand apart in the source and are kept apart here.

What was measured:
Assay type in all cases: in vivo
[1] = test system: Cabbage Looper (Trichoplusia ni, TRIPNI); assay: Bioassays on Cabbage Looper (CL), 128-well diet tray assay; conditions: Trichoplusia ni
How it was run: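 Second-instar larvae (1–5 per well) placed on artificial diet surface-treated with 50 μg/cm^2 test molecule applied in 90:10 acetone-water and dried. Held at 25° C., 14:10 light-dark, for five to seven days. Percent mortality scored per well and averaged over eight wells.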

[2] = test system: Green Peach Aphid (Myzus persicae, MYZUPE); assay: Bioassays on Green Peach Aphid (GPA), foliar spray on cabbage seedlings; conditions: 72 h
Protocol: Certain molecules disclosed in this document were tested against GPA using procedures described in the following example. In the reporting of the results, the “GPA & YFM Rating Table” was used (See Table Section).
Cabbage seedlings grown in 3-inch pots, with 2-3 small (3-5 cm) true leaves, were used as test substrate. The seedlings were infested with 20-50 GPA (wingless adult and nymph stages) one day prior to chemical application. Four pots with individual seedlings were used for each treatment. Test molecules (2 mg) were dissolved in 2 mL of acetone/methanol (1:1) solvent, forming stock solutions of 1000 ppm test molecule. The stock solutions were diluted 5× with 0.025% Tween 20 in water to obtain the solution at 200 ppm test molecule. A hand-held aspirator-type sprayer was used for spraying a solution to both sides of […] leaves until runoff. Reference plants (solvent check) were sprayed with the diluent only containing 20% by volume of acetone/methanol (1:1) solvent. Treated plants were held in a holding room for three days at approximately 25° C. and ambient relative humidity (RH) prior to grading. Evaluation was conducted by counting the number of live aphids per plant under a microscope. Percent control was measured using Abbott's correction formula (W. S. Abbott, “A Method of Computing the Effectiveness of an Insecticide” J. Econ. Entomol. 18 (1925), pp. 265-267) as follows. Corrected % Control=100*(X−Y)/X where X=No. of live aphids on solvent check plants and Y=No. of live aphids on treated plants. The results are indicated in the table entitled “Table ABC: Biological Results” (See Table Section).

[3] = test system: Beet Armyworm (Spodoptera exigua, LAPHEG); assay: Bioassays on Beet Armyworm (BAW), 128-well diet tray assay; conditions: Spodoptera exigua
How it was run: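 Percent larval mortality, averaged across eight wells, scored after five to seven days at 25° C. under 14:10 light-dark. Each well held one to five second instars feeding on diet dosed at 50 μg/cm^2 with compound from 90:10 acetone-water, solvent dried off.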

[4] = test system: Yellow Fever Mosquito (Aedes aegypti, AEDSAE); conditions: for YFM rating: Yellow Fever Mosquito, Table ABC / ABC-DP rating
How it was run: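 Compounds from 4000 ppm DMSO stocks were diluted in 90:10 water/acetone and dispensed into wells, then infested with about 1-day-old larvae in liver-powder water. Covered plates were held at room temperature for 3 days and each well was scored for mortality against a rating scale; six replicate plates per compound.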

[5] = Table ABC: Biological Results, species CL, read-out: CL
[6] = Table ABC: Biological Results, species GPA, read-out: GPA
[7] = Table ABC: Biological Results, species BAW, read-out: BAW
[8] = Cabbage Looper, Table ABC / ABC-DP rating, read-out: CL rating
[9] = Beet Armyworm, Table ABC / ABC-DP rating, read-out: BAW rating
[10] = Cabbage Looper, rating class, read-out: CL
[11] = Green Peach Aphid, rating class, read-out: GPA
[12] = Beet Armyworm, rating class, read-out: BAW

Structure (SMILES) | pest or weed control at 50 µg/cm2 [1, 5] [%] | pest or weed control at 200 µg/mL [2, 6] [%] | pest or weed control at 50 µg/cm2 [3, 7] [%] | pest or weed control at 50 µg/cm2 [1, 8] [%] | pest or weed control at 50 µg/cm2 [3, 9] [%] | YFM rating [4] | further results
Cc1c(Cl)cc(NC(=O)[C@H]2[C@H](c3ccc(F)c(Cl)c3)C2(Cl)Cl)cc1C(=O)Nc1ccc(F)cc1F (relative stereo) [F1190, trans-3-Chloro-5-(2,2-dichloro-3-(3-chloro-4-fluorophenyl)cyclopropane-1-carboxamido)-N-(2,4-difluorophenyl)-2-methylbenzamide] | 50 to 100 | 80 to 100 | 50 to 100 |  |  |  | 
O=C(NNC(=O)c1cc(NC(=O)[C@H]2[C@H](c3cc(Cl)cc(Cl)c3)C2(Cl)Cl)ccc1Cl)Nc1ccccc1 (relative stereo) [F2537, trans-2-(2-Chloro-5-(2,2-dichloro-3-(3,5-dichlorophenyl)cyclopropane-1-carboxamido)benzoyl)-N-phenylhydrazine-1-carboxamide] |  |  |  | 50 to 100 | 50 to 100 |  | pest or weed control at 200 µg/mL ([2]; Green Peach Aphid, Table ABC / ABC-DP rating, read-out: GPA rating): 80 to 100%
O=C(Nc1cc(NC(=O)C(Cl)Cl)c(F)cc1F)c1cc(NC(=O)[C@H]2[C@H](c3ccc(Cl)c(Cl)c3)C2(Cl)Cl)ccc1Cl [F1244, 2-Chloro-5-((1R,3R)-2,2-dichloro-3-(3,4-dichlorophenyl)cyclopropane-1-carboxamido)-N-(5-(2,2-dichloroacetamido)-2,4-difluorophenyl)benzamide] | 50 to 100 | 0 to 80 | 50 to 100 |  |  |  | 
Nc1c(F)ccc(NC(=O)c2cc(NC(=O)[C@H]3[C@H](c4ccc(F)c(Cl)c4)C3(Cl)Cl)cc(F)c2Cl)c1F [F1255, N-(3-amino-2,4-difluorophenyl)-2-chloro-5-((1R,3R)-2,2-dichloro-3-(3-chloro-4-fluorophenyl)cyclopropane-1-carboxamido)-3-fluorobenzamide] | 50 to 100 | 80 to 100 | 50 to 100 |  |  |  | 
O=C(Nc1ccc(F)c(NC(=O)C(F)F)c1F)c1cc(NC(=O)[C@H]2[C@H](c3ccc(F)c(Cl)c3)C2(Cl)Cl)cc(F)c1Cl [F1256, 2-Chloro-5-((1R,3R)-2,2-dichloro-3-(3-chloro-4-fluorophenyl)cyclopropane-1-carboxamido)-N-(3-(2,2-difluoroacetamido)-2,4-difluorophenyl)-3-fluorobenzamide] | 50 to 100 | 80 to 100 | 50 to 100 |  |  |  | 
O=C(Nc1c(F)cc(NC(=O)C(F)(F)F)cc1F)c1cc(NC(=O)[C@H]2[C@H](c3ccc(Cl)c(Cl)c3)C2(Cl)Cl)ccc1Cl [F1261, 2-Chloro-5-((1R,3R)-2,2-dichloro-3-(3,4-dichlorophenyl)cyclopropane-1-carboxamido)-N-(2,6-difluoro-4-(2,2,2-trifluoroacetamido)phenyl)benzamide] | 50 to 100 | 80 to 100 | 50 to 100 |  |  |  | 
CC(=O)Nc1cc(F)c(NC(=O)c2cc(NC(=O)[C@H]3[C@H](c4ccc(Cl)c(Cl)c4)C3(Cl)Cl)ccc2Cl)c(F)c1 [F1262, N-(4-Acetamido-2,6-difluorophenyl)-2-chloro-5-((1R,3R)-2,2-dichloro-3-(3,4-dichlorophenyl)cyclopropane-1-carboxamido)benzamide] | 50 to 100 | 80 to 100 | 50 to 100 |  |  |  | 
CC(=O)Nc1ccc(F)c(NC(=O)c2cc(NC(=O)[C@H]3[C@H](c4cc(Cl)cc(Cl)c4)C3(Cl)Cl)cc(F)c2Cl)c1F [F1505, N-(3-acetamido-2,6-difluorophenyl)-2-chloro-5-((1R,3R)-2,2-dichloro-3-(3,5-dichlorophenyl)cyclopropane-1-carboxamido)-3-fluorobenzamide] |  |  |  |  |  |  | pest or weed control at 50 µg/cm2 [1, 10]: 50 to 100%; pest or weed control at 200 µg/mL [2, 11]: 0 to 80%; pest or weed control at 50 µg/cm2 [3, 12]: 50 to 100%
O=C(Nc1ccc(F)c(NC(=O)C(F)F)c1F)c1cc(NC(=O)[C@H]2[C@H](c3ccc(F)c(C(F)(F)F)c3)C2(Cl)Cl)ccc1F [F1530, 5-((1R,3R)-2,2-Dichloro-3-(4-fluoro-3-(trifluoromethyl)phenyl)cyclopropane-1-carboxamido)-N-(3-(2,2-difluoroacetamido)-2,4-difluorophenyl)-2-fluorobenzamide] |  |  |  |  |  |  | pest or weed control at 50 µg/cm2 [1, 10]: 50 to 100%; pest or weed control at 200 µg/mL [2, 11]: 0 to 80%; pest or weed control at 50 µg/cm2 [3, 12]: 50 to 100%
CC(=O)Nc1c(F)ccc(NC(=O)c2cc(NC(=O)[C@H]3[C@H](c4ccc(F)c(C(F)(F)F)c4)C3(Cl)Cl)ccc2F)c1F [F1531, N-(3-acetamido-2,4-difluorophenyl)-5-((1R,3R)-2,2-dichloro-3-(4-fluoro-3-(trifluoromethyl)phenyl)cyclopropane-1-carboxamido)-2-fluorobenzamide] |  |  |  |  |  |  | pest or weed control at 50 µg/cm2 [1, 10]: 50 to 100%; pest or weed control at 200 µg/mL [2, 11]: 0 to 80%; pest or weed control at 50 µg/cm2 [3, 12]: 50 to 100%
CN(NC(=O)c1cc(NC(=O)[C@H]2[C@H](c3cc(Cl)cc(Cl)c3)C2(Cl)Cl)ccc1Cl)c1ccccc1 [F2510, (1R,3R)-2,2-Dichloro-N-(4-chloro-3-(2-methyl-2-phenylhydrazine-1-carbonyl)phenyl)-3-(3,5-dichlorophenyl)cyclopropane-1-carboxamide] |  |  |  | 50 to 100 | 50 to 100 | A (80–100) | 
CN(NC(=O)c1cc(NC(=O)[C@H]2[C@H](c3cc(Cl)c(Cl)c(Cl)c3)C2(Cl)Cl)ccc1Cl)c1ccccc1 [F2511, (1R,3R)-2,2-Dichloro-N-(4-chloro-3-(2-methyl-2-phenylhydrazine-1-carbonyl)phenyl)-3-(3,4,5-trichlorophenyl)cyclopropane-1-carboxamide] |  |  |  | 50 to 100 | 50 to 100 | A (80–100) | 
CN(NC(=O)c1cc(NC(=O)[C@H]2[C@H](c3ccc(F)c(Cl)c3)C2(Cl)Cl)ccc1Cl)c1ccccc1 [F2512, (1R,3R)-2,2-Dichloro-N-(4-chloro-3-(2-methyl-2-phenylhydrazine-1-carbonyl)phenyl)-3-(3-chloro-4-fluorophenyl)cyclopropane-1-carboxamide] |  |  |  | 50 to 100 | 50 to 100 | A (80–100) | 
CN(NC(=O)c1cc(NC(=O)[C@H]2[C@H](c3ccc(Cl)c(Cl)c3)C2(Cl)Cl)ccc1Cl)c1ccccc1 [F2513, (1R,3R)-2,2-Dichloro-N-(4-chloro-3-(2-methyl-2-phenylhydrazine-1-carbonyl)phenyl)-3-(3,4-dichlorophenyl)cyclopropane-1-carboxamide] |  |  |  | 50 to 100 | 50 to 100 | A (80–100) | 
CN(C(=O)c1cc(NC(=O)[C@H]2[C@H](c3ccc(Cl)c(Cl)c3)C2(Cl)Cl)ccc1Cl)N(C)c1ccccc1 [F2544, (1R,3R)-2,2-Dichloro-N-(4-chloro-3-(1,2-dimethyl-2-phenylhydrazine-1-carbonyl)phenyl)-3-(3,4-dichlorophenyl)cyclopropane-1-carboxamide] |  |  |  | 50 to 100 | 50 to 100 | A (80–100) | 
O=C(NN=Cc1ccccc1)c1cc(NC(=O)C2C(c3cc(Cl)cc(Cl)c3)C2(Cl)Cl)ccc1Cl (stereo not drawn) [F3001, trans-N-(3-(2-Benzylidenehydrazine-1-carbonyl)-4-chiorophenyl)-2,2-dichloro-3-(3,5-dichlorophenyl)cyclopropane-1-carboxamide] |  |  |  | 50 to 100 | 50 to 100 | A (80–100) | mortality at 50 µg/cm2 ([1]; 168 h, second instar larvae, 50 μg/cm^2 of test molecule on artificial diet, 25° C., five to seven days, average of eight wells, read-out: CL % Control (or Mortality) rating): 50 to 100%; YFM % Control (or Mortality) rating ([4]; about 1 day-old larvae, 4000 ppm master solution diluted with 90:10 water/acetone, 15 μL per well plus 220 μL larval mixture, 3 days, mortality): A (80–100); mortality at 50 µg/cm2 ([3]; 168 h, second instar larvae, 50 μg/cm^2 of test molecule on artificial diet, 25° C., five to seven days, average of eight wells, read-out: BAW % Control (or Mortality) rating): 50 to 100%
